Experimental data taken from patent US9624206B2, “Antibacterial 1H-indazole and 1H-indole derivatives” (priority 2013, dated 2017).
Values after ≈ are worked out from the molar mass of the structure shown.

Assays:
Test in all cases: Bacterial growth minimal inhibitory concentration (microdilution, CLSI M7-A7)
Assay type in all cases: cell-based
[1] = system: Acinetobacter baumannii T6474; conditions: Acinetobacter baumannii, T6474; multiply-resistant strain (in particular quinolone-resistant); cation-adjusted Mueller-Hinton Broth
Protocol: (§1) Minimal Inhibitory Concentrations (MICs; mg/L) were determined in cation-adjusted Mueller-Hinton Broth by a microdilution method following the description given in “Methods for Dilution Antimicrobial Susceptibility Tests for Bacteria that Grow Aerobically”, Approved standard, 7th ed., Clinical and Laboratory Standards Institute (CLSI) Document M7-A7, Wayne, Pa., USA (2006).
(§2) All Example compounds were tested against several Gram-positive and Gram-negative bacteria. […] K. pneumoniae A-651 and Acinetobacter baumannii T6474 are multiply-resistant strains (in particular quinolone-resistant), while E. coli ATCC25922 and P. aeruginosa ATCC27853 are quinolone-sensitive strains.

E. coli ATCC25922 = conditions: Escherichia coli, ATCC25922; quinolone-sensitive strain; cation-adjusted Mueller-Hinton Broth
Protocol: as §1, §2

K. pneumoniae A-651 = conditions: Klebsiella pneumoniae, A651; multiply-resistant strain (in particular quinolone-resistant); cation-adjusted Mueller-Hinton Broth
Protocol: as §1, §2

P. aeruginosa ATCC27853 = conditions: Pseudomonas aeruginosa, ATCC27853; quinolone-sensitive strain; cation-adjusted Mueller-Hinton Broth
Protocol: as §1, §2

SMILES | MIC [1] [mg/L] | MIC (E. coli ATCC25922) [mg/L] | MIC (K. pneumoniae A-651) [mg/L] | MIC (P. aeruginosa ATCC27853) [mg/L]
CC#CCOc1ccc2c(ccn2CCC(C)(C(=O)NO)S(C)(=O)=O)c1 (racemic) [RE1, (RS)-4-(5-(but-2-yn-1-yloxy)-1H-indol-1-yl)-N-hydroxy-2-methyl-2-(methylsulfonyl)butanamide] | 16 (≈ 42.3 µM) | 8 (≈ 21.1 µM) | 16 (≈ 42.3 µM) | 16 (≈ 42.3 µM)
COc1cccc(-c2ccc3c(cnn3CCC(C)(C(=O)NO)S(C)(=O)=O)c2)c1F (racemic) [RE2, (RS)-4-(5-(2-fluoro-3-methoxyphenyl)-1H-indazol-1-yl)-N-hydroxy-2-methyl-2-(methylsulfonyl)butanamide] | 32 (≈ 73.5 µM) | 8 (≈ 18.4 µM) | 16 (≈ 36.7 µM) | 16 (≈ 36.7 µM)
CC(CCn1ncc2cc(/C=C/c3ccccc3)ccc21)(C(=O)NO)S(C)(=O)=O (racemic) [RE3, (RS)-(E)-N-hydroxy-2-methyl-2-(methylsulfonyl)-4-(5-styryl-1H-indazol-1-yl)butanamide] | 0.25 (≈ 0.605 µM) | 0.25 (≈ 0.605 µM) | 1 (≈ 2.42 µM) | 16 (≈ 38.7 µM)
CC(CCn1ncc2cc(CCc3ccccc3)ccc21)(C(=O)NO)S(C)(=O)=O (racemic) [RE4, (RS)—N-hydroxy-2-methyl-2-(methylsulfonyl)-4-(5-phenethyl-1H-indazol-1-yl)butanamide] | 8 (≈ 19.3 µM) | 2 (≈ 4.81 µM) | 0.5 (≈ 1.2 µM) | 8 (≈ 19.3 µM)
CC(CCn1ncc2cc(C#Cc3ccc(CN4CCOCC4)cc3)ccc21)(C(=O)NO)S(C)(=O)=O.Cc1ccc(S(=O)(=O)O)cc1 (racemic) [RE5, (RS)—N-hydroxy-2-methyl-2-(methylsulfonyl)-4-(5-((4-(morpholinomethyl)phenyl)ethynyl)-1H-indazol-1-yl)butanamide 4-toluenesulfonic acid salt] | 32 | 0.5 | 0.5 | 16
CC(CCn1ncc2cc(C#Cc3ccc(N)cc3)ccc21)(C(=O)NO)S(C)(=O)=O (racemic) [RE6, (RS)-4-(5-((4-aminophenyl)ethynyl)-1H-indazol-1-yl)-N-hydroxy-2-methyl-2-(methylsulfonyl)butanamide] | 1 (≈ 2.34 µM) | 0.25 (≈ 0.586 µM) | 0.5 (≈ 1.17 µM) | 8 (≈ 18.8 µM)
COc1ccc(-c2cc3ccn(CCC(C)(C(=O)NO)S(C)(=O)=O)c3cc2F)c(F)c1 (racemic) [RE11, (RS)-4-(6-fluoro-5-(2-fluoro-4-methoxyphenyl)-1H-indol-1-yl)-N-hydroxy-2-methyl-2-(methylsulfonyl)butanamide] | 4 (≈ 8.84 µM) | 1 (≈ 2.21 µM) | 2 (≈ 4.42 µM) | 8 (≈ 17.7 µM)
COc1ccc(-c2ccc3c(ccn3CCC(C)(C(=O)NO)S(C)(=O)=O)c2F)c(F)c1 (racemic) [RE12, (RS)-4-(4-fluoro-5-(2-fluoro-4-methoxyphenyl)-1H-indol-1-yl)-N-hydroxy-2-methyl-2-(methylsulfonyl)butanamide] | 2 (≈ 4.42 µM) | 2 (≈ 4.42 µM) | 4 (≈ 8.84 µM) | 2 (≈ 4.42 µM)
CC(CCn1ccc2c(F)c(C#Cc3ccc(C4(O)COC4)cc3)ccc21)(C(=O)NO)S(C)(=O)=O (racemic) [RE13, (RS)-4-(4-fluoro-5-((4-(3-hydroxyoxetan-3-yl)phenyl)ethynyl)-1H-indol-1-yl)-N-hydroxy-2-methyl-2-(methylsulfonyl)butanamide] | 4 (≈ 7.99 µM) | 0.25 (≈ 0.499 µM) | 0.5 (≈ 0.999 µM) | 2 (≈ 4 µM)
COc1ccc(-c2ccc3c(cnn3CC[C@](C)(C(=O)NO)S(C)(=O)=O)c2)c(F)c1 [Example 3, (R)-4-(5-(2-fluoro-4-methoxyphenyl)-1H-indazol-1-yl)-N-hydroxy-2-methyl-2-(methylsulfonyl)butanamide] | 1 (≈ 2.3 µM) | 0.25 (≈ 0.574 µM) | 1 (≈ 2.3 µM) | 1 (≈ 2.3 µM)
C[C@@](CCn1ncc2cc(C#Cc3ccc(CO)cc3)ccc21)(C(=O)NO)S(C)(=O)=O [Example 4, (R)—N-hydroxy-4-(5-((4-(hydroxymethyl)phenyl)ethynyl)-1H-indazol-1-yl)-2-methyl-2-(methylsulfonyl)butanamide] | 0.125 (≈ 0.283 µM) | 0.125 (≈ 0.283 µM) | ≤ 0.063 | 2 (≈ 4.53 µM)
C[C@@](CCn1ncc2cc(-c3ccc(-n4nccn4)cc3)ccc21)(C(=O)NO)S(C)(=O)=O [Example 6, (R)-4-(5-(4-(2H-1,2,3-triazol-2-yl)phenyl)-1H-indazol-1-yl)-N-hydroxy-2-methyl-2-(methylsulfonyl)butanamide] | 0.125 (≈ 0.275 µM) | ≤ 0.063 | 0.125 (≈ 0.275 µM) | 2 (≈ 4.4 µM)
CC(C)(O)C#CC#Cc1ccc2c(cnn2CC[C@](C)(C(=O)NO)S(C)(=O)=O)c1 [Example 7, (R)—N-hydroxy-4-(5-(5-hydroxy-5-methylhexa-1,3-diyn-1-yl)-1H-indazol-1-yl)-2-methyl-2-(methylsulfonyl)butanamide] | 32 (≈ 76.6 µM) | 0.5 (≈ 1.2 µM) | 1 (≈ 2.4 µM) | 2 (≈ 4.79 µM)
C[C@@](CCn1ccc2cc(C#Cc3ccc(C4(O)COC4)cc3)ccc21)(C(=O)NO)S(C)(=O)=O [Example 10, (R)—N-hydroxy-4-(5-((4-(3-hydroxyoxetan-3-yl)phenyl)ethynyl)-1H-indol-1-yl)-2-methyl-2-(methylsulfonyl)butanamide] | 0.125 (≈ 0.259 µM) | 0.125 (≈ 0.259 µM) | 0.25 (≈ 0.518 µM) | 1 (≈ 2.07 µM)

The remaining lines, values ahead:

MIC [1] [mg/L] | MIC (E. coli ATCC25922) [mg/L] | MIC (K. pneumoniae A-651) [mg/L] | MIC (P. aeruginosa ATCC27853) [mg/L] | SMILES
8 (≈ 17 µM) | 4 (≈ 8.48 µM) | 1 (≈ 2.12 µM) | 8 (≈ 17 µM) | CC(CCn1ncc2cc(-c3ccc(OC(F)(F)F)cc3)ccc21)(C(=O)NO)S(C)(=O)=O (racemic) [RE7, (RS)—N-hydroxy-2-methyl-2-(methylsulfonyl)-4-(5-(4-(trifluoromethoxy)phenyl)-1H-indazol-1-yl)butanamide]
0.5 | 0.25 | ≤ 0.063 | 8 | CC(CCn1ccc2cc(-c3ccc(-n4nccn4)cc3)ccc21)(C(=O)NO)S(C)(=O)=O.O=CO (racemic) [RE8, (RS)-4-(5-(4-(2H-1,2,3-triazol-2-yl)phenyl)-1H-indol-1-yl)-N-hydroxy-2-methyl-2-(methylsulfonyl)butanamide formate]
2 (≈ 4.25 µM) | 4 (≈ 8.5 µM) | 2 (≈ 4.25 µM) | 8 (≈ 17 µM) | CC(CCn1ccc2cc(-c3ccc(OC(F)(F)F)cc3)ccc21)(C(=O)NO)S(C)(=O)=O (racemic) [RE9, (RS)—N-hydroxy-2-methyl-2-(methylsulfonyl)-4-(5-(4-(trifluoromethoxy)phenyl)-1H-indol-1-yl)butanamide]
4 (≈ 8.88 µM) | 2 (≈ 4.44 µM) | 0.5 (≈ 1.11 µM) | 8 (≈ 17.8 µM) | CSc1ccc(-c2ccc3c(ccn3CCC(C)(C(=O)NO)S(C)(=O)=O)c2)c(F)c1 (racemic) [RE10, (RS)-4-(5-(2-fluoro-4-(methylthio)phenyl)-1H-indol-1-yl)-N-hydroxy-2-methyl-2-(methylsulfonyl)butanamide]
16 (≈ 35.8 µM) | 0.125 (≈ 0.28 µM) | 0.125 (≈ 0.28 µM) | 1 (≈ 2.24 µM) | C[C@@](CCn1ccc2cc(C#CC#C[C@@H]3C[C@H]3CO)c(F)cc21)(C(=O)NO)S(C)(=O)=O (relative stereo) [Example 41, (R)-4-(6-fluoro-5-(((1R*,2R*)-2-(hydroxymethyl)cyclopropyl)buta-1,3-diyn-1-yl)-1H-indol-1-yl)-N-hydroxy-2-methyl-2-(methylsulfonyl)butanamide]
8 (≈ 18.4 µM) | 0.125 (≈ 0.288 µM) | 2 (≈ 4.6 µM) | 2 (≈ 4.6 µM) | COc1ccc(-c2ccc3c(ccn3CC[C@](C)(C(=O)NO)S(C)(=O)=O)c2)c(F)c1 (single isomer, unassigned) [Example 2]
0.25 (≈ 0.499 µM) | 0.5 (≈ 0.999 µM) | 0.5 (≈ 0.999 µM) | 1 (≈ 2 µM) | C[C@@](CCn1ccc2cc(C#Cc3ccc(C4(O)COC4)cc3)c(F)cc21)(C(=O)NO)S(C)(=O)=O (single isomer, unassigned) [Example 15]
16 (≈ 35.4 µM) | ≤ 0.063 | 0.25 (≈ 0.554 µM) | 4 (≈ 8.86 µM) | CSc1ccc(-c2ccc3c(cnn3CC[C@](C)(C(=O)NO)S(C)(=O)=O)c2)c(F)c1 [Example 1, (R)-4-(5-(2-fluoro-4-(methylthio)phenyl)-1H-indazol-1-yl)-N-hydroxy-2-methyl-2-(methylsulfonyl)butanamide]
> 32 | 1 (≈ 2.32 µM) | 1 (≈ 2.32 µM) | 2 (≈ 4.64 µM) | C[C@@](CCn1ncc2cc(C#CC#CC3(O)COC3)ccc21)(C(=O)NO)S(C)(=O)=O [Example 5, (R)—N-hydroxy-4-(5-((3-hydroxyoxetan-3-yl)buta-1,3-diyn-1-yl)-1H-indazol-1-yl)-2-methyl-2-(methylsulfonyl)butanamide]
0.25 (≈ 0.532 µM) | 0.125 (≈ 0.266 µM) | 0.25 (≈ 0.532 µM) | 2 (≈ 4.26 µM) | CC(C)(O)c1ccc(C#Cc2ccc3c(cnn3CC[C@](C)(C(=O)NO)S(C)(=O)=O)c2)cc1 [Example 8, (R)—N-hydroxy-4-(5-((4-(2-hydroxypropan-2-yl)phenyl)ethynyl)-1H-indazol-1-yl)-2-methyl-2-(methylsulfonyl)butanamide]
0.125 (≈ 0.284 µM) | ≤ 0.063 | 0.125 (≈ 0.284 µM) | 1 (≈ 2.27 µM) | C[C@@](CCn1ccc2cc(C#Cc3ccc(CO)cc3)ccc21)(C(=O)NO)S(C)(=O)=O [Example 9, (R)—N-hydroxy-4-(5-((4-(hydroxymethyl)phenyl)ethynyl)-1H-indol-1-yl)-2-methyl-2-(methylsulfonyl)butanamide]
